In PMC6445164, “Primary mono- and bis-sulfonamides obtained via regiospecific sulfochlorination of N-arylpyrazoles: inhibition profile against a panel of human carbonic anhydrases” (Journal of Enzyme Inhibition and Medicinal Chemistry, 2017):

Biological target: hCA II (Homo sapiens, UniProt P00918)
Assay: stopped-flow CA catalysed CO2 hydration assay, hCA II
Description: (§1) An applied photophysics stopped-flow instrument has been used for assaying the CA catalysed CO2 hydration activity[21]. […] The CO2 concentrations ranged from 1.7 to 17 mM for the determination of the kinetic parameters and inhibition constants. […] The uncatalysed rates were determined in the same manner and subtracted from the total observed rates. Stock solutions of inhibitor (0.1 mM) were prepared in distilled-deionized water and dilutions up to 0.005 nM were done thereafter with the assay buffer. Inhibitor and enzyme solutions were preincubated together for 15 min at room temperature prior to assay, in order to allow for the formation of the E–I complex. The inhibition constants were obtained by non-linear least-squares methods using PRISM 3 and the Cheng–Prusoff equation, as reported earlier, and represent the mean from at least three different determinations. All CA isoforms were recombinant ones obtained in-house[22–25].

Row | SMILES | Ki | hCA II inhibition, in words
1 | COc1ccc(S(N)(=O)=O)cc1-n1cccn1 [Compound 7l, 4-Methoxy-3-(^1H-pyrazol-1-yl)benzenesulfonamide] | 6650 nM | –
2 | Cc1nn(-c2ccc(Cl)cc2)c(C)c1S(N)(=O)=O [Compound 8a, 1-(4-Chlorophenyl)-3,5-dimethyl-^1H-pyrazole-4-sulfonamide] | 5330 nM | –
3 | NS(=O)(=O)c1cnn(-c2ccc(Cl)cc2)c1 [Compound 8f, 1-(4-Chlorophenyl)-^1H-pyrazole-4-sulfonamide] | 82 nM | –
4 | NS(=O)(=O)c1ccc(-n2cccn2)cc1 [Compound 7a, 4-(^1H-pyrazol-1-yl)benzenesulfonamide] | 72 nM | –
5 | COc1ccc(S(N)(=O)=O)cc1-n1nc(C)cc1C [Compound 7k, 3-(3,5-Dimethyl-^1H-pyrazol-1-yl)-4-methoxybenzenesulfonamide] | > 10000 nM | inactive throughout the panel
6 | Cc1nn(-c2cccc(Cl)c2)c(C)c1S(N)(=O)=O [Compound 8g, 1-(3-Chlorophenyl)-3,5-dimethyl-^1H-pyrazole-4-sulfonamide] | 1080 nM | –

These reach a lower Ki. Values come first.

Row | Ki | hCA II inhibition, in words | SMILES
7 | 8 nM | – | Cc1nn(-c2ccc(S(N)(=O)=O)c(Cl)c2)c(C)c1S(N)(=O)=O [Compound 9o, 1-(3-Chloro-4-sulfamoylphenyl)-3,5-dimethyl-^1H-pyrazole-4-sulfonamide]
8 | 5 nM | – | Cc1nn(-c2ccc(S(N)(=O)=O)cc2)c(C)c1S(N)(=O)=O [Compound 9b, 3,5-Dimethyl-1-(4-sulfamoylphenyl)-^1H-pyrazole-4-sulfonamide]
9 | 2 nM | – | NS(=O)(=O)c1ccc(-n2cc(S(N)(=O)=O)cn2)cc1 [Compound 9c, 1-(4-Sulfamoylphenyl)-^1H-pyrazole-4-sulfonamide]
10 | 4 nM | – | Cc1cc(C)n(-c2ccc(S(N)(=O)=O)c(C)c2)n1 [Compound 7c, 4-(3,5-Dimethyl-^1H-pyrazol-1-yl)-2-methylbenzenesulfonamide]
11 | 4 nM | – | Cc1ccc(-n2cc(S(N)(=O)=O)cn2)cc1S(N)(=O)=O [Compound 9e, 1-(4-Methyl-3-sulfamoylphenyl)-^1H-pyrazole-4-sulfonamide]
12 | 1 nM | – | NS(=O)(=O)c1ccc(Cl)c(-n2cccn2)c1 [Compound 7n, 4-Chloro-3-(^1H-pyrazol-1-yl)benzenesulfonamide]

Biological target: hCA I (Homo sapiens, UniProt P00915)
Assay: stopped-flow CA catalysed CO2 hydration assay, hCA I

Sequence of hCA I (P00915 whole entry): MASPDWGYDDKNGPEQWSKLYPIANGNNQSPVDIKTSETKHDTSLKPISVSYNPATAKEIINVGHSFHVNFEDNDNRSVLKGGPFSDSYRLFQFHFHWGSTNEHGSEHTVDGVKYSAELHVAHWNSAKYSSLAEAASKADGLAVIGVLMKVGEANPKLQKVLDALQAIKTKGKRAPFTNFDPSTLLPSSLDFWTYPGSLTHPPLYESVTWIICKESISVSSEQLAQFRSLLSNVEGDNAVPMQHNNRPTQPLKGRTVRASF

Row | SMILES | Ki | hCA I inhibition, in words
13 | COc1ccc(S(N)(=O)=O)cc1-n1cccn1 [Compound 7l, 4-Methoxy-3-(^1H-pyrazol-1-yl)benzenesulfonamide] | > 10000 nM | –
14 | Cc1nn(-c2ccc(Cl)cc2)c(C)c1S(N)(=O)=O [Compound 8a, 1-(4-Chlorophenyl)-3,5-dimethyl-^1H-pyrazole-4-sulfonamide] | 760 nM | –
15 | NS(=O)(=O)c1cnn(-c2ccc(Cl)cc2)c1 [Compound 8f, 1-(4-Chlorophenyl)-^1H-pyrazole-4-sulfonamide] | 190 nM | –
16 | NS(=O)(=O)c1ccc(-n2cccn2)cc1 [Compound 7a, 4-(^1H-pyrazol-1-yl)benzenesulfonamide] | 4780 nM | –
17 | COc1ccc(S(N)(=O)=O)cc1-n1nc(C)cc1C [Compound 7k, 3-(3,5-Dimethyl-^1H-pyrazol-1-yl)-4-methoxybenzenesulfonamide] | > 10000 nM | inactive throughout the panel
18 | Cc1nn(-c2cccc(Cl)c2)c(C)c1S(N)(=O)=O [Compound 8g, 1-(3-Chlorophenyl)-3,5-dimethyl-^1H-pyrazole-4-sulfonamide] | 940 nM | –

More lines, now with the values ahead:

Row | Ki | hCA I inhibition, in words | SMILES
19 | 160 nM | – | Cc1nn(-c2ccc(S(N)(=O)=O)c(Cl)c2)c(C)c1S(N)(=O)=O [Compound 9o, 1-(3-Chloro-4-sulfamoylphenyl)-3,5-dimethyl-^1H-pyrazole-4-sulfonamide]
20 | 330 nM | – | Cc1nn(-c2ccc(S(N)(=O)=O)cc2)c(C)c1S(N)(=O)=O [Compound 9b, 3,5-Dimethyl-1-(4-sulfamoylphenyl)-^1H-pyrazole-4-sulfonamide]
21 | 200 nM | – | NS(=O)(=O)c1ccc(-n2cc(S(N)(=O)=O)cn2)cc1 [Compound 9c, 1-(4-Sulfamoylphenyl)-^1H-pyrazole-4-sulfonamide]
22 | 260 nM | – | Cc1cc(C)n(-c2ccc(S(N)(=O)=O)c(C)c2)n1 [Compound 7c, 4-(3,5-Dimethyl-^1H-pyrazol-1-yl)-2-methylbenzenesulfonamide]
23 | 300 nM | – | Cc1ccc(-n2cc(S(N)(=O)=O)cn2)cc1S(N)(=O)=O [Compound 9e, 1-(4-Methyl-3-sulfamoylphenyl)-^1H-pyrazole-4-sulfonamide]
24 | 3830 nM | – | NS(=O)(=O)c1ccc(Cl)c(-n2cccn2)c1 [Compound 7n, 4-Chloro-3-(^1H-pyrazol-1-yl)benzenesulfonamide]

Tested on: not given
Assay: not given

Row | SMILES | melting point
25 | COc1ccc(S(N)(=O)=O)cc1-n1cccn1 [Compound 7l, 4-Methoxy-3-(^1H-pyrazol-1-yl)benzenesulfonamide] | 255 to 257 °C
26 | Cc1nn(-c2ccc(Cl)cc2)c(C)c1S(N)(=O)=O [Compound 8a, 1-(4-Chlorophenyl)-3,5-dimethyl-^1H-pyrazole-4-sulfonamide] | 164 to 166 °C
27 | NS(=O)(=O)c1cnn(-c2ccc(Cl)cc2)c1 [Compound 8f, 1-(4-Chlorophenyl)-^1H-pyrazole-4-sulfonamide] | 147 to 150 °C
28 | NS(=O)(=O)c1ccc(-n2cccn2)cc1 [Compound 7a, 4-(^1H-pyrazol-1-yl)benzenesulfonamide] | 323 to 325 °C
29 | COc1ccc(S(N)(=O)=O)cc1-n1nc(C)cc1C [Compound 7k, 3-(3,5-Dimethyl-^1H-pyrazol-1-yl)-4-methoxybenzenesulfonamide] | 167 to 170 °C
30 | Cc1nn(-c2cccc(Cl)c2)c(C)c1S(N)(=O)=O [Compound 8g, 1-(3-Chlorophenyl)-3,5-dimethyl-^1H-pyrazole-4-sulfonamide] | 182 to 184 °C

The next lines start with the values.

Row | melting point | SMILES
31 | 198 to 201 °C | Cc1nn(-c2ccc(S(N)(=O)=O)c(Cl)c2)c(C)c1S(N)(=O)=O [Compound 9o, 1-(3-Chloro-4-sulfamoylphenyl)-3,5-dimethyl-^1H-pyrazole-4-sulfonamide]
32 | 272 to 274 °C | Cc1nn(-c2ccc(S(N)(=O)=O)cc2)c(C)c1S(N)(=O)=O [Compound 9b, 3,5-Dimethyl-1-(4-sulfamoylphenyl)-^1H-pyrazole-4-sulfonamide]
33 | 254 to 257 °C | NS(=O)(=O)c1ccc(-n2cc(S(N)(=O)=O)cn2)cc1 [Compound 9c, 1-(4-Sulfamoylphenyl)-^1H-pyrazole-4-sulfonamide]
34 | 194 to 196 °C | Cc1cc(C)n(-c2ccc(S(N)(=O)=O)c(C)c2)n1 [Compound 7c, 4-(3,5-Dimethyl-^1H-pyrazol-1-yl)-2-methylbenzenesulfonamide]
35 | 217 to 220 °C | Cc1ccc(-n2cc(S(N)(=O)=O)cn2)cc1S(N)(=O)=O [Compound 9e, 1-(4-Methyl-3-sulfamoylphenyl)-^1H-pyrazole-4-sulfonamide]
36 | 204 to 206 °C | NS(=O)(=O)c1ccc(Cl)c(-n2cccn2)c1 [Compound 7n, 4-Chloro-3-(^1H-pyrazol-1-yl)benzenesulfonamide]

Biological target: hCA IV (Homo sapiens, UniProt P22748)
Assay: stopped-flow CA catalysed CO2 hydration assay, hCA IV
Description: as §1

Sequence of hCA IV (P22748 19-312): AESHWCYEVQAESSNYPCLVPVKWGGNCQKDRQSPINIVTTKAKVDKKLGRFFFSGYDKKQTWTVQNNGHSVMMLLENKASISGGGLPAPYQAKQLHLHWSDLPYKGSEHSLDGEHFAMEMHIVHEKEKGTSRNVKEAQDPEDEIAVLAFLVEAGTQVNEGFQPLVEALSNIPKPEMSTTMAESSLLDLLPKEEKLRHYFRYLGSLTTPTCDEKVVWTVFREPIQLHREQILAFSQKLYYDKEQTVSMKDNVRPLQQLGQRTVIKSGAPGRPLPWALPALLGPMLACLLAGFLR

Row | SMILES | Ki | hCA IV inhibition, in words
37 | COc1ccc(S(N)(=O)=O)cc1-n1cccn1 [Compound 7l, 4-Methoxy-3-(^1H-pyrazol-1-yl)benzenesulfonamide] | > 10000 nM | –
38 | Cc1nn(-c2ccc(Cl)cc2)c(C)c1S(N)(=O)=O [Compound 8a, 1-(4-Chlorophenyl)-3,5-dimethyl-^1H-pyrazole-4-sulfonamide] | > 10000 nM | –
39 | NS(=O)(=O)c1cnn(-c2ccc(Cl)cc2)c1 [Compound 8f, 1-(4-Chlorophenyl)-^1H-pyrazole-4-sulfonamide] | 7060 nM | –
40 | NS(=O)(=O)c1ccc(-n2cccn2)cc1 [Compound 7a, 4-(^1H-pyrazol-1-yl)benzenesulfonamide] | > 10000 nM | –
41 | COc1ccc(S(N)(=O)=O)cc1-n1nc(C)cc1C [Compound 7k, 3-(3,5-Dimethyl-^1H-pyrazol-1-yl)-4-methoxybenzenesulfonamide] | > 10000 nM | inactive throughout the panel
42 | Cc1nn(-c2cccc(Cl)c2)c(C)c1S(N)(=O)=O [Compound 8g, 1-(3-Chlorophenyl)-3,5-dimethyl-^1H-pyrazole-4-sulfonamide] | 9490 nM | –

Further lines, results first:

Row | Ki | hCA IV inhibition, in words | SMILES
43 | 930 nM | – | Cc1nn(-c2ccc(S(N)(=O)=O)c(Cl)c2)c(C)c1S(N)(=O)=O [Compound 9o, 1-(3-Chloro-4-sulfamoylphenyl)-3,5-dimethyl-^1H-pyrazole-4-sulfonamide]
44 | 111 nM | – | Cc1nn(-c2ccc(S(N)(=O)=O)cc2)c(C)c1S(N)(=O)=O [Compound 9b, 3,5-Dimethyl-1-(4-sulfamoylphenyl)-^1H-pyrazole-4-sulfonamide]
45 | 25 nM | – | NS(=O)(=O)c1ccc(-n2cc(S(N)(=O)=O)cn2)cc1 [Compound 9c, 1-(4-Sulfamoylphenyl)-^1H-pyrazole-4-sulfonamide]
46 | 33 nM | – | Cc1cc(C)n(-c2ccc(S(N)(=O)=O)c(C)c2)n1 [Compound 7c, 4-(3,5-Dimethyl-^1H-pyrazol-1-yl)-2-methylbenzenesulfonamide]
47 | 240 nM | – | Cc1ccc(-n2cc(S(N)(=O)=O)cn2)cc1S(N)(=O)=O [Compound 9e, 1-(4-Methyl-3-sulfamoylphenyl)-^1H-pyrazole-4-sulfonamide]
48 | 4 nM | – | NS(=O)(=O)c1ccc(Cl)c(-n2cccn2)c1 [Compound 7n, 4-Chloro-3-(^1H-pyrazol-1-yl)benzenesulfonamide]

Biological target: hCA VII (Homo sapiens, UniProt P43166)
Assay: stopped-flow CA catalysed CO2 hydration assay, hCA VII
Description: as §1

Sequence of hCA VII (P43166 whole entry): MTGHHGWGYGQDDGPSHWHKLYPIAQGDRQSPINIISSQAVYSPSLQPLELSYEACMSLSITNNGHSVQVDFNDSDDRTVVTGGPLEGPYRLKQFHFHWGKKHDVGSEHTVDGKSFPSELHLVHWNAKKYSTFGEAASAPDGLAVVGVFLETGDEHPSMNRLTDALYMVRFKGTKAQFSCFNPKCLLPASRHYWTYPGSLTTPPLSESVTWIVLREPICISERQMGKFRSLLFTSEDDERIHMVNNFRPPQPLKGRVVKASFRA

Row | SMILES | Ki | hCA VII inhibition, in words
49 | COc1ccc(S(N)(=O)=O)cc1-n1cccn1 [Compound 7l, 4-Methoxy-3-(^1H-pyrazol-1-yl)benzenesulfonamide] | > 10000 nM | –
50 | Cc1nn(-c2ccc(Cl)cc2)c(C)c1S(N)(=O)=O [Compound 8a, 1-(4-Chlorophenyl)-3,5-dimethyl-^1H-pyrazole-4-sulfonamide] | > 10000 nM | –
51 | NS(=O)(=O)c1cnn(-c2ccc(Cl)cc2)c1 [Compound 8f, 1-(4-Chlorophenyl)-^1H-pyrazole-4-sulfonamide] | > 10000 nM | –
52 | NS(=O)(=O)c1ccc(-n2cccn2)cc1 [Compound 7a, 4-(^1H-pyrazol-1-yl)benzenesulfonamide] | 800 nM | –
53 | COc1ccc(S(N)(=O)=O)cc1-n1nc(C)cc1C [Compound 7k, 3-(3,5-Dimethyl-^1H-pyrazol-1-yl)-4-methoxybenzenesulfonamide] | > 10000 nM | inactive throughout the panel
54 | Cc1nn(-c2cccc(Cl)c2)c(C)c1S(N)(=O)=O [Compound 8g, 1-(3-Chlorophenyl)-3,5-dimethyl-^1H-pyrazole-4-sulfonamide] | 460 nM | –

Now from value to molecule:

Row | Ki | hCA VII inhibition, in words | SMILES
55 | 710 nM | – | Cc1nn(-c2ccc(S(N)(=O)=O)c(Cl)c2)c(C)c1S(N)(=O)=O [Compound 9o, 1-(3-Chloro-4-sulfamoylphenyl)-3,5-dimethyl-^1H-pyrazole-4-sulfonamide]
56 | 35 nM | – | Cc1nn(-c2ccc(S(N)(=O)=O)cc2)c(C)c1S(N)(=O)=O [Compound 9b, 3,5-Dimethyl-1-(4-sulfamoylphenyl)-^1H-pyrazole-4-sulfonamide]
57 | 41 nM | – | NS(=O)(=O)c1ccc(-n2cc(S(N)(=O)=O)cn2)cc1 [Compound 9c, 1-(4-Sulfamoylphenyl)-^1H-pyrazole-4-sulfonamide]
58 | 40 nM | – | Cc1cc(C)n(-c2ccc(S(N)(=O)=O)c(C)c2)n1 [Compound 7c, 4-(3,5-Dimethyl-^1H-pyrazol-1-yl)-2-methylbenzenesulfonamide]
59 | 68 nM | – | Cc1ccc(-n2cc(S(N)(=O)=O)cn2)cc1S(N)(=O)=O [Compound 9e, 1-(4-Methyl-3-sulfamoylphenyl)-^1H-pyrazole-4-sulfonamide]
60 | 9 nM | – | NS(=O)(=O)c1ccc(Cl)c(-n2cccn2)c1 [Compound 7n, 4-Chloro-3-(^1H-pyrazol-1-yl)benzenesulfonamide]
